Drawing on patent US20090197878A1, “SUBSTITUTED BENZO[d][1,3]OXAZIN-2(4H)-ONES AND RELATED DERIVATIVES AND THEIR USES FOR MODULATING THE PROGESTERONE RECEPTOR” (Wyeth, priority 2008, published 2009), this text covers melting point, inhibition and IC50 for 18 compounds.

The subject of data set [1] is alkaline phosphatase activity in T47D cells. Briefly: Effects of progestins and antiprogestins on alkaline phosphatase activity in T47D cells. The class given is cell-based. As to conditions: Homo sapiens; for IC50: antagonist mode in the presence of 1 nM progesterone, 24 hours; for inhibition at 3 µM: at 3000 nM; for inhibition at 0.3 µM: at 300 nM. How it is done:
The purpose of this example is to identify progestins or antiprogestins by determining a compound's effect on alkaline phosphatase activity in T47D cells.
A. Reagents: • Culture medium: Dulbecco's Modified Eagle Medium (DMEM):F12 (1:1) (GIBCO, BRL) supplemented with 5% (v/v) charcoal stripped fetal bovine serum (not heat-inactivated), 100 U/mL penicillin, 100 μg/mL streptomycin, and 2 mM of the GlutaMax® reagent (GIBCO, BRL). • Alkaline phosphatase assay buffer: • I. 0.1M Tris-HCl, pH 9.8, containing 0.2% Triton® X-100 reagent • II. 0.1M Tris-HCl, pH 9.8, containing 4 mM p-nitrophenyl phosphate (Sigma).
Frozen T47D cells are thawed in a 37° C. water bath and diluted to 280,000 cells/mL in culture medium. To each well in a 96-well plate (Falcon, Becton Dickinson Labware), was added 180 μL of diluted cell suspension. Twenty μL of reference or test compounds diluted in the culture medium is then added to each well. When testing for progestin antagonist activity, reference antiprogestins or test compounds are added in the presence of 1 nM progesterone. The cells are incubated at 37° C. in a 5% CO2/humidified atmosphere for 24 hours. For high throughput screening, one concentration of each compound will be tested at 0.3 μg/mL. Based on an average molecular weight of 300 g/mol for the compounds in the library, the concentration is approximately 1 μM. Compounds active in this assay can be tested in dose response assays to determine EC50 and IC50.
C. Alkaline Phosphatase Enzyme Assay: • At the end of treatment, the medium is removed from the plate. Fifty μL of assay buffer I is added to each well. The plates are shaken in a titer plate shaker for 15 minutes. Then 150 μL of assay buffer II is added to each well. Optical density measurements are taken at 5 minute intervals for 30 minutes at a test wavelength of 405 nm.
D. Analysis of Results: Analysis of Dose-Response Data • For reference and test compounds, a dose response curve is generated for dose (X-axis) vs. the rate of enzyme reaction (slope) (Y-axis). Square root-transformed data are used for analysis of variance and nonlinear dose response curve fitting for both agonist and antagonist modes. Huber weighting is used to down-weight the effects of outliers. EC50 or IC50 values are calculated from the retransformed values. JMP® software (SAS Institute, Inc.) is used for both one-way analysis of variance and non-linear dose response analysis in both single dose and dose response studies.
E. Reference Compounds • Progesterone and trimegestone are reference progestins and RU486 is the reference antiprogestin. All reference compounds are run in full dose response curves and the EC50 and IC50 values are calculated.

The mark [2] stands for this setting: in the presence of 1 nM progesterone.

Molecules are shown by their SMILES.

For `CC/C(=C\C#N)c1ccc2c(c1)C1(CCCCC1)OC(=O)N2` [Example 19, (2E)-3-(2-Oxo-1,2-dihydrospiro[3,1-benzoxazine-4,1′-cyclohexan]-6-yl)pent-2-enenitrile], the melting point was 173 to 174 °C. The inhibition at 0.03 µM in data set [1] (at 30 nM, in the presence of 1 nM progesterone) turned out to be 60%.
Consider `COC(=O)/C=C/c1ccc2c(c1)C(C)(C)OC(=O)N2` [Example 2, Methyl(2E)-3-(4,4-dimethyl-2-oxo-1,4-dihydro-2H-3,1-benzoxazin-6-yl)acrylate], for which the melting point lay within 204 to 205 °C.
Compound `COC(=O)/C=C/c1ccc2c(c1)C(C)(C)CC(=O)N2` [Example 1, Methyl(2E)-3-(4,4-dimethyl-2-oxo-1,2,3,4-tetrahydroquinolin-6-yl)acrylate] came in with a melting point of 174 to 175 °C.
The compound `CC1(C)OC(=O)Nc2ccc(/C(=C/C(N)=O)c3ccccc3)cc21` [Example 7, (2E)-3-(4,4-Dimethyl-2-oxo-1,4-dihydro-2H-3,1-benzoxazin-6-yl)-3-phenylacrylamide] yielded a melting point of 219 to 220 °C. The IC50 in data set [1] was determined as 50 µM.
The compound `CCC/C(=C\C=O)c1ccc2c(c1)C(CC)(CC)OC(=O)N2` [Example 26, (2E)-3-(4,4-Diethyl-2-oxo-1,4-dihydro-2H-3,1-benzoxazin-6-yl)hex-2-enal] returned a melting point of 173 to 179 °C. The inhibition at 3 µM in data set [1] (setting [2]) was found to be 100%.
On to `C/C(=C\C(=O)O)c1ccc2c(c1)C(C)(C)OC(=O)N2` [Example 15, (2E)-3-(4,4-Dimethyl-2-oxo-1,4-dihydro-2H-3,1-benzoxazin-6-yl)but-2-enoic acid], for which the melting point is 274 to 275 °C (dec.). Further, the inhibition at 3 µM in data set [1] (setting [2]) is 0%.
Taken in the same sequence, the figures for `CC1(C)OC(=O)Nc2ccc(/C=C/C(=O)O)cc21` [Example 14, (2E)-3-(4,4-Dimethyl-2-oxo-1,4-dihydro-2H-3,1-benzoxazin-6-yl)acrylic acid] were 260 to 261 °C (dec.) and 0%.
As to `C/C(=C\C(N)=O)c1ccc2c(c1)C(C)(C)OC(=O)N2` [Example 5, (2E)-3-(4,4-Dimethyl-2-oxo-1,4-dihydro-2H-3,1-benzoxazin-6-yl)but-2-enamide], the melting point was 198 to 200 °C. Also, the IC50 in data set [1] turned out to be 50 µM.
As for `CC1(C)OC(=O)Nc2ccc(/C=C/C#N)cc21` [Example 8, (2E)-3-(4,4-Dimethyl-2-oxo-1,4-dihydro-2H-3,1-benzoxazin-6-yl)acrylonitrile], the melting point was 238 to 240 °C (dec.).
For the compound `CC/C(=C\C(N)=O)c1ccc2c(c1)C1(CCCCC1)OC(=O)N2` [Example 18, (2E)-3-(2-Oxo-1,2-dihydrospiro[3,1-benzoxazine-4,1′-cyclohexan]-6-yl)pent-2-enamide], the melting point was 235 to 238 °C (dec.). For the same compound, in data set [1] (setting [2]), the inhibition at 3 µM amounted to 22%.
On to `CC1(C)OC(=O)Nc2ccc(/C=C/c3ccno3)cc21` [Example 3, 6-[(E)-2-Isoxazol-5-ylvinyl]-4,4-di-methyl-1,4-dihydro-2H-3,1-benzoxazin-2-one], for which the melting point was 190 to 193 °C.
For `C/C(=C\C#N)c1ccc2c(c1)C1(CCCCC1)OC(=O)N2` [Example 17, (2E)-3-(2-oxo-1,2-dihydrospiro[3,1-benzoxazine-4,1′-cyclohexan]-6-yl)but-2-enenitrile], the melting point was 208 to 210 °C (dec.). In addition, in data set [1] (setting [2]), the inhibition at 0.3 µM is 60%.
In the case of `CCC/C(=C\C(N)=O)c1ccc2c(c1)C(CC)(CC)OC(=O)N2` [Example 24, (2E)-3-(4,4-Diethyl-2-oxo-1,4-dihydro-2H-3,1-benzoxazin-6-yl)hex-2-enamide], the melting point is 212 to 213 °C. Further, in data set [1] (setting [2]), the inhibition at 3 µM worked out at 65%.
Regarding `CC1(C)OC(=O)Nc2ccc(C3=CC(=O)OCC3)cc21` [Example 10, 4,4-Dimethyl-6-(6-oxo-3,6-dihydro-2H-pyran-4-yl)-1,4-dihydro-2H-3,1-benzoxazin-2-one], the melting point was 235 to 236 °C (dec.).
For the compound `CC(C)/C(=C\C#N)c1ccc2c(c1)C1(CCCCC1)OC(=O)N2` [Example 21, (2E)-4-Methyl-3-(2-oxo-1,2-dihydrospiro[3,1-benzoxazine-4,1′-cyclohexan]-6-yl)pent-2-enenitrile], the melting point was 201 to 203 °C (dec.). The inhibition at 0.3 µM in data set [1] (setting [2]) was 60%.
The compound `COC(=O)/C=C(\c1ccccc1)c1ccc2c(c1)C(C)(C)OC(=O)N2` [Example 11, Methyl(2E)-3-(4,4-dimethyl-2-oxo-1,4-dihydro-2H-3,1-benzoxazin-6-yl)-3-phenylacrylate] displayed a melting point of 181 to 182 °C.
With `C/C(=C\C(N)=O)c1ccc2c(c1)C1(CCCCC1)OC(=O)N2` [Example 16, (2E)-3-(2-Oxo-1,2-dihydrospiro[3,1-benzoxazine-4,1′-cyclohexan]-6-yl)but-2-enamide], the melting point is 204 to 207 °C (dec.). In addition, the inhibition at 3 µM in data set [1] (setting [2]) was found to be 0%.
For `CC1(C)OC(=O)Nc2ccc(/C=C/C(N)=O)cc21` [Example 4, (2E)-3-(4,4-Dimethyl-2-oxo-1,4-dihydro-2H-3,1-benzoxazin-6-yl)acrylamide], the melting point is 196 to 198 °C. Besides, the IC50 in data set [1] was 50 µM.
